Data reported in US9962375B2, “Methyl-piperidine compounds useful for inhibiting microsomal prostaglandin E2 synthase-1” (Eli Lilly and Company, priority 2014, dated 2018).

Experiments:
[1] = target: T1, Human mPGES-1 (Homo sapiens, UniProt O14684); assay: Human mPGES-1 Enzyme Inhibition Assay; assay type: biochemical; conditions: microsomes from 293E cells, 1.67 μM PGH2, PGE2 by LC/MS; ±0.00064, n=17
T1 construct: host or cells: 293E cells (transient expression; microsomes prepared from cell pellets)
T1 sequence (O14684 1-152): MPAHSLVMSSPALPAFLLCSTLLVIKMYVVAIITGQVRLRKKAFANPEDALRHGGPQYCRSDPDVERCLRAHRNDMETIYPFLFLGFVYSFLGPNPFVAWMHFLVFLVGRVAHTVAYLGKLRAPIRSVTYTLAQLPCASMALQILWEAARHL
Experimental: Human mPGES-1 Enzyme Inhibition Assay
Human mPGES-1 (Invitrogen™ (Cat#97002RG, clone ID 6374722)) is subcloned into pcDNA3.1 and transiently expressed in 293E cells. Microsomes are prepared from cell pellets based on published methods (Oullet et al., Purification and characterization of recombinant microsomal prostaglandin E synthase-1, Protein Expression and Purification, 26 pp 489-495 (2002); and Thoren et al., Human Microsomal Prostanglandin E Synthase-1, J. Biol Chem. 278(25) pp 22199-22209 (2003)). Briefly, pellets are brought up in homogenization buffer (15 mM Tris-HCl, pH 8.0; 0.25 M sucrose; 0.1 mM EDTA; 1 mM glutathione) and sonicated 5×30 seconds on ice. Homogenate is centrifuged at 5,000×g for 10 minutes at 4° C. The supernatant fraction is decanted and loaded into Beckman Quick-Seal® tubes and centrifuged at 150,000×g. for 90 minutes at 4° C. The supernatant fraction is discarded by decantation and the pellets are re-suspended in assay buffer (10 mM sodium phosphate, pH 7.0; 10% glycerol; 2.5 mM glutathione; Complete Protease Inhibitor Cocktail (Roche)). Protein concentration is determined using the Pierce Coomassie Plus™ reagent.
For the enzyme assay, the microsomes are diluted into assay buffer and 14 μL/well of the resulting solution is added to 384 well assay plates. […]

[2] = system: PGE2 formation in human epithelial lung carcinoma cell line A549; assay: Cell Based Assay for Measuring Eicosanoid Selectivity (rhIL-1β induced PGE2 in A549 cells); conditions: 0.1 ng/mL rhIL-1β, approximately 18 hours, EIA, ±0.00301, n=2, read-out: IC50 for inhibition of PGE2 formation
Experimental: Cell Based Assay for Measuring Eicosanoid Selectivity
Human epithelial lung carcinoma cell line A549 is obtained from ATCC (CCL-185) and maintained in Kaighn's F12 cell culture medium+10% fetal bovine serum (FBS) (plating medium) under standard 5% CO2 humidified atmosphere at 37° C. The cells are passaged at 1:3 twice per week.
For the assays, cells are released from flasks by washing once with PBS, then once with Trypsin/EDTA. After 3-5 minutes at 37° C., the cells are suspended in plating medium and centrifuged at 2,000 rpm, 25° C., for 5 minutes. The supernatant is aspirated and the cell pellet is resuspended in F12K plating medium. The cell number is determined by counting an aliquot of cells which has been diluted in PBS and Trypan blue on a hemocytometer. Cells are plated at 40,000/well in 96 well Falcon plates 24 hours prior to treatment. Compounds are diluted in DMSO to 100× of the final concentration in Screen Mates tubes. The medium is removed from the cells and fresh medium (90 μL/well) is added to the cells. The compounds are added at 1 μL/well, n=2, to give seven concentrations each. Cells are pretreated with compounds for 30 minutes at 37° C., 5% CO2. […] After approximately 90-120 minutes at room temperature on an orbital shaker at 100 rpm, the plates are read at A412 on a plate reader. […]

[3] = system: PGE2 formation in human whole blood; assay: Human Whole Blood Assay (LPS induced PGE2); assay type: cell-based; conditions: 100 μg/mL LPS, 20-24 hours, LC/MS/MS, n=11, read-out: IC50 for inhibition of PGE2 formation in human whole blood
Experimental: Blood is collected from normal volunteer donors into sodium heparin VACUTAINER tubes. Donors are selected, in part, on their confirmation that they have not taken NSAIDs, aspirin, Celebrex®, or glucocorticoids within two weeks of the donation. All tubes/donor are pooled into 250 mL Corning conical centrifuge tubes and 436.5 μL/well is distributed into deep well polypropylene plates. Compounds are diluted in DMSO to 100× final and 4.5 μL/well in duplicate or triplicate is added to give 7 point curves. […] One hundred microliters is quantitatively transferred to Costar cluster tubes blocks and 400 μL/well of the MeOH stop reagent and internal standards, d4-PGE2, d4-PGF2α, and d4-TXA2β are added. […]
Solid phase extraction is performed using Waters HLB 30 mg/bed 96 well plates on a vacuum manifold: Step 1, the matrix is washed with MeOH (1 mL), followed by 0.1% formic acid in water (1 mL); Step 2, 400 μL sample is applied along with 0.1% formic acid in water (900 μL) and allowed to bind for 5 minutes; Step 3, the matrix is washed with 0.1% formic acid in water (600 μL), followed by 80/20 water/MeOH (600 μL); Step 4, the products are eluted with 2-500 μL volumes of EtOAc; Step 5 the samples are dried under nitrogen and reconstituted in 75/25 water/acetonitrile with 0.1% formic acid (50 μL). The products are analyzed by LC/MS/MS.

SMILES: Cc1cccc2ccc(N3CC[C@H](C(=O)N[C@H]4CCO[C@H](CO)C4)C(C)(C)C3)nc12 [Example 1, (S)-N-((2S,4S)-2-(Hydroxymethyl)tetrahydro-2H-pyran-4-yl)-3,3-dimethyl-1-(8-methylquinolin-2-yl)piperidine-4-carboxamide]
- IC50 [1]: 1.93 nM
- IC50 [2]: 4.71 nM
- IC50 [3]: 2.05 ± 0.82 nM
